# From PubChem BioAssay (NCI)
#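 The compound was tested at five concentrations on cells cultured in 96-well plates, with a 48-hour exposure period. Abbreviation: GI50, concentration required for 50% inhibition of growth. TGI denotes the concentration required for complete inhibition of growth.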
# Assays:
# Experiment in all cases: NCI-60 cell line screen, 48 h
# A498 renal = tested on: A498 renal
# BT-549 breast = tested on: BT-549 breast
# COLO 205 colon = tested on: COLO 205 colon
# EKVX NSCLC = tested on: EKVX NSCLC
# KM12 colon = tested on: KM12 colon
# LOX IMVI melanoma = tested on: LOX IMVI melanoma
# MDA-MB-435 = tested on: MDA-MB-435
# NCI/ADR-RES ovarian = tested on: NCI/ADR-RES ovarian
# OVCAR-3 ovarian = tested on: OVCAR-3 ovarian
# SR leukemia = tested on: SR leukemia
# SW-620 colon = tested on: SW-620 colon
# UO-31 renal = tested on: UO-31 renal
# RXF 393 renal = tested on: RXF 393 renal
SMILES,TGI (A498 renal) [µM],TGI (BT-549 breast) [µM],TGI (COLO 205 colon) [µM],TGI (EKVX NSCLC) [µM],TGI (KM12 colon) [µM],TGI (LOX IMVI melanoma) [µM],TGI (MDA-MB-435) [µM],TGI (NCI/ADR-RES ovarian) [µM],TGI (OVCAR-3 ovarian) [µM],TGI (SR leukemia) [µM],TGI (SW-620 colon) [µM],TGI (UO-31 renal) [µM],TGI (RXF 393 renal) [µM],GI50 (A498 renal) [µM],GI50 (BT-549 breast) [µM],GI50 (MDA-MB-435) [µM],GI50 (RXF 393 renal) [µM],GI50 (SW-620 colon) [µM],GI50 (UO-31 renal) [µM]
COc1ccc(C2SCC(=O)N2c2ccc(-n3c(-c4ccccc4)nc4ccccc4c3=O)cc2)cc1OC (stereo not given),> 100,> 100,> 100,> 100,> 100,> 100,> 100,> 100,> 100,> 100,> 100,> 100,–,–,–,–,–,–,–
N#CCCN(CCC#N)c1ccc(C(N=Nc2ccccc2)=Nc2ccccc2)cc1,> 100,> 100,> 100,> 100,> 100,–,> 100,> 100,> 100,> 100,> 100,> 100,> 100,–,–,–,–,–,–
O=[N+]([O-])c1ccc(C2=NOC(c3ccccc3F)N2C23CC4CC(CC(C4)C2)C3)cc1 (stereo not given),> 100,> 100,> 100,> 100,> 100,> 100,> 100,> 100,> 100,> 100,> 100,> 100,–,–,–,–,–,–,–
CCCc1cc(=O)oc2c3c(c4c(c12)OC(C)(C)C=C4)O[C@@H](C)[C@H](C)C3=O,29.9,29.6,49.5,24.6,27.9,37.3,58.8,35.4,49.1,41.6,32.2,31.4,–,–,–,–,–,–,–
CC1OC(OC2C(O[C@H]3CC[C@@]4(C)[C@@H](CC[C@@H]5[C@@H]4CC[C@]4(C)[C@@H]6[C@H](C[C@@H]54)O[C@]4(CC[C@@H](C)CO4)[C@H]6C)C3)OC(CO)C(OC3OC(CO)C(O)C(OC4OCC(O)C(O)C4O)C3OC3OCC(O)C(O)C3O)C2O)C(O)C(O)C1O (stereo not given in full),3.78,2.36,1.35,2.95,1.92,2.91,2.74,3.13,3.13,–,0.348,2.44,1.85,–,–,–,–,–,–
CON(C)C(C#N)=C(C#N)C#N,> 10,–,> 10,> 10,> 10,> 10,> 10,> 10,> 10,> 10,> 10,> 10,> 10,–,–,–,–,–,–
Cn1c(=O)cc(NCc2ccc(Cl)cc2)[nH]c1=O,> 100,> 100,> 100,> 100,> 100,> 100,> 100,> 100,> 100,–,> 100,> 100,> 100,–,–,–,–,–,–
O=c1[nH]c(=O)n(C2CC(O)C(CO)O2)cc1OCCCc1ccccc1 (stereo not given),–,> 100,> 100,> 100,> 100,> 100,> 100,> 100,> 100,–,–,> 100,> 100,–,–,–,–,–,–
COc1ccc(N=C(C)c2ccncc2)cc1,> 100,> 100,> 100,> 100,> 100,> 100,> 100,> 100,> 100,–,> 100,> 100,> 100,–,–,–,–,–,–
CC(OC(=O)NCn1cc(-c2ccccc2)nn1)c1ccccc1 (stereo not given),–,> 100,> 100,> 100,> 100,> 100,> 100,> 100,–,> 100,> 100,–,–,–,–,–,–,–,–
CC(C)NC(=O)CN1CCN(C2=CC(=O)c3c(O)ccc(O)c3C2=O)CC1,46,32.1,9.64,33.6,33.2,19.6,3.76,25.5,6.56,–,14.4,33.2,33.2,–,–,–,–,–,–
CC1=C2C(=O)[C@H]3[C@@H](CC=C4C[C@@H](O)CC[C@@]43C)[C@@H]2CC[C@]12O[C@@H]1C[C@H](C)CN[C@H]1[C@H]2C,> 57.9,> 100,> 100,> 66.7,> 83.4,> 58.2,> 100,> 100,> 56,–,> 79.9,> 54.3,> 53,–,–,–,–,–,–
COc1cc(CCCOC(=O)/C=C/c2ccc(O)c(O)c2)cc(O)c1O,> 100,> 100,> 100,> 100,> 100,45.6,> 100,–,> 100,> 100,35.9,> 100,> 100,–,–,–,–,–,–
Cc1cccc2c1Oc1ccccc1C2NC(=O)c1ccc([N+](=O)[O-])cc1 (stereo not given),> 100,> 100,–,> 100,> 100,> 100,–,> 100,> 100,> 100,> 100,> 100,89.2,–,–,–,–,–,–
CC1(C)CC(=O)C2=C(C1)c1c(ccc3ccccc13)NC2c1cn(Cc2ccc(Cl)cc2)c2ccccc12 (stereo not given),–,> 100,> 100,> 100,> 100,> 100,> 100,> 100,> 100,> 100,> 100,> 100,–,–,–,–,–,–,–
CCCc1c(OC)c(=O)c2c(OC)cc(OC)c3c4c(OC)cc(OC)c5c(=O)c(OC)c(CCC)c(c1c23)c54,37.1,31.4,27.2,28,34.1,23.1,29.6,47.4,31.8,–,33.7,28.9,69.1,–,–,–,–,–,–
CC(=O)OCC1OC(n2c3c(c(-c4ccco4)c(C#N)c2=S)CCC3)C(OC(C)=O)C(OC(C)=O)C1OC(C)=O (stereo not given),–,> 100,> 100,–,> 100,> 100,> 100,> 100,> 100,> 100,> 100,> 100,86.9,–,–,–,–,–,–
O=C1CN2Cc3cc(N4CCOCC4)ccc3N=C2N1,> 100,> 100,> 100,–,> 100,> 100,> 100,> 100,> 100,> 100,> 100,> 100,> 100,–,–,–,–,–,–

SMILES,TGI (A498 renal) [µM],TGI (BT-549 breast) [µM],TGI (COLO 205 colon) [µM],TGI (EKVX NSCLC) [µM],TGI (KM12 colon) [µM],TGI (LOX IMVI melanoma) [µM],TGI (MDA-MB-435) [µM],TGI (NCI/ADR-RES ovarian) [µM],TGI (OVCAR-3 ovarian) [µM],TGI (SR leukemia) [µM],TGI (SW-620 colon) [µM],TGI (UO-31 renal) [µM],TGI (RXF 393 renal) [µM],GI50 (A498 renal) [µM],GI50 (BT-549 breast) [µM],GI50 (MDA-MB-435) [µM],GI50 (RXF 393 renal) [µM],GI50 (SW-620 colon) [µM],GI50 (UO-31 renal) [µM]
O=c1cc(N2CCOCC2)[nH]c(=O)n1-c1cccc(C(F)(F)F)c1,> 100,> 100,> 100,> 100,> 100,> 100,> 100,> 100,> 100,> 100,> 100,> 100,–,–,–,–,–,–,–
CC1(C2(C)OC(=O)c3ccccc32)OC(=O)c2ccccc21 (stereo not given),> 100,> 100,> 100,–,> 100,> 100,> 100,> 100,> 100,> 100,> 100,> 100,> 100,–,–,–,–,–,–
Cc1cccc2c1Oc1cc(Cl)ccc1C2NC(=O)CCN1CCN(CCO)CC1 (stereo not given),–,37.5,36.6,70.5,11.5,9.7,27.5,30.9,34,45.1,32.2,26.8,–,–,–,–,–,–,–
C[C@H](Nc1c(O)c2c(c(O)c1Cl)C(=O)C=CC2=O)C(=O)Nc1ccc([N+](=O)[O-])cc1,4.8,> 10,2.97,> 10,3.66,–,3.04,5.05,2.75,> 10,6.49,–,3.04,–,–,–,–,–,–
O=C(CC(=O)N1N=C(N2CCCCC2)CC1c1ccccc1)Nc1ccc(Cl)cc1 (stereo not given),> 100,> 100,> 100,> 100,> 100,> 100,> 100,> 100,> 100,–,> 100,> 100,–,–,–,–,–,–,–
O=C1CCC[C@]2(CCC[C@@H](O)C2)N1,–,> 100,> 100,> 100,> 100,> 100,–,> 100,> 100,–,–,–,> 100,–,–,–,–,–,–
CC1CC[C@@]2(OC1)OC1C[C@H]3[C@@H]4C/C(=N\N(C)C)[C@@]5(O)CC(O)CC[C@]5(C)[C@H]4CC[C@]3(C)C1[C@@H]2C (stereo not given in full),> 100,> 100,> 100,–,> 100,> 100,> 100,> 100,> 100,54.6,> 100,> 100,61.2,–,–,–,–,–,–
Nc1c(-c2nc3ccccc3s2)c2ccc([N+](=O)[O-])cc2c(=O)n1-c1cccc(C(=O)O)c1,–,64.3,> 100,–,> 100,> 100,> 100,> 100,–,44.1,> 100,71.8,–,–,–,–,–,–,–
CC1=C2c3c(C)ccc4ccc(C)c(c34)C2(O)C(C)C1=O (stereo not given),> 100,57.4,72.2,> 100,> 100,> 100,> 100,76,> 100,> 100,> 100,> 100,–,–,–,–,–,–,–
Clc1ccc(Oc2ccc(N=Cc3ccc(Cl)cc3Cl)cc2Cl)cc1,–,93.1,> 100,> 100,> 100,> 100,49.7,84.9,> 100,–,> 100,> 100,–,–,–,–,–,–,–
O=C1C(/C=C/c2ccc(Cl)cc2)=NNC2N1N=C1NC(=O)C3(NN12)c1ccccc1-c1ccccc13 (stereo not given),> 100,> 100,> 100,> 100,–,> 100,> 100,> 100,> 100,60.3,> 100,> 100,> 100,–,–,–,–,–,–
CCCCn1c(C)c(C(=O)OCC)s/c1=N/Nc1nc2ccccc2nc1-c1ccccc1,> 100,> 100,> 100,> 100,–,> 100,> 100,> 100,> 100,> 100,> 100,–,> 100,–,–,–,–,–,–
CC1(C)CC[C@]2(C)CC=C3[C@]4(C)CC[C@H]5C(C)(C)C(=O)CC[C@]5(C)[C@H]4CC[C@@]3(C)[C@H]2C1,> 100,–,> 100,> 100,> 100,> 100,> 100,> 100,> 100,> 100,> 100,> 100,> 100,–,–,–,–,–,–
NCCCNc1nc2ccccc2c2c(=O)c3cc(C(F)(F)F)ccc3sc12,3.23,27.1,–,–,–,–,3.06,–,–,–,3.18,2.74,2.72,1.73,7.3,1.65,1.38,1.69,1.4
COc1cc(C2c3cc4c(cc3OC(Nc3ccc(C(=O)O)cc3)C2C)OCO4)cc(OC)c1OC (stereo not given),> 100,> 26.8,0.518,> 100,1.66,> 100,0.265,4.9,–,–,> 100,28,92,–,–,–,–,–,–
COc1ccc2nc3ccc(OC)cc3c(S(=O)(=O)Cc3ccc([N+](=O)[O-])cc3)c2c1,> 100,–,> 100,> 100,> 100,> 100,> 100,> 100,> 100,> 100,> 100,> 100,> 100,–,–,–,–,–,–
CC1(c2nc3cc(Cl)c(Cl)cc3[nH]2)CCC(CO)C(C)(C)O1 (stereo not given),–,44.8,73.8,87,38.6,> 100,> 100,44.5,74.3,> 100,> 100,39.9,> 100,–,–,–,–,–,–
CC1(C)C(=O)C(C)(C)C12SSC1(S2)C(C)(C)C(=O)C1(C)C,> 100,> 100,> 100,> 100,> 100,> 100,> 100,> 100,> 100,> 100,> 100,> 100,–,–,–,–,–,–,–
